# Results taken from ChEMBL document CHEMBL4270495, “Oleanane-, ursane-, and quinone methide friedelane-type triterpenoid derivatives: Recent advances in cancer treatment” (Eur J Med Chem, 2017).
# Key:
# [1] = tested on: HepG2; experiment: Cytotoxicity in human HepG2 cells assessed as reduction in cell viability incubated for 24 hrs by MTT assay; assay type: functional, cell-based; settings: HepG2, 24 h
# [2] = tested on: HeLa; experiment: Cytotoxicity in human HeLa cells assessed as reduction in cell viability incubated for 24 hrs by MTT assay; assay type: functional, cell-based
# [3] = Cytotoxicity in human HELF cells assessed as reduction in cell viability incubated for 24 hrs by MTT assay; assay type: cell-based
# [4] = tested on: HT-29; experiment: Cytotoxicity in human HT-29 cells assessed as reduction in cell viability incubated for 72 hrs by MTT assay; assay type: functional, cell-based; settings: HT-29, 72 h
# [5] = tested on: Bel-7402; experiment: Cytotoxicity in human Bel7402 cells assessed as reduction in cell viability incubated for 72 hrs by MTT assay; assay type: functional, cell-based; settings: Bel-7402, 72 h
# [6] = tested on: BGC-823; experiment: Cytotoxicity in human BGC823 cells assessed as reduction in cell viability incubated for 72 hrs by MTT assay; assay type: functional, cell-based; settings: BGC-823, 72 h
# [7] = tested on: HeLa; experiment: Cytotoxicity in human HeLa cells assessed as reduction in cell viability incubated for 72 hrs by MTT assay; assay type: functional, cell-based
# [8] = tested on: HT-29; experiment: Cytotoxicity in human HT-29 cells assessed as reduction in cell viability incubated for 96 hrs by SRB assay; assay type: functional, cell-based; settings: HT-29, 96 h
# [9] = tested on: CT26; experiment: Cytotoxicity in mouse CT26 cells assessed as reduction in cell viability incubated for 96 hrs by SRB assay; assay type: functional, cell-based; settings: CT26, 96 h
# [10] = tested on: 4T1; experiment: Cytotoxicity in mouse 4T1 cells assessed as reduction in cell viability incubated for 96 hrs by SRB assay; assay type: functional, cell-based; settings: 4T1, 96 h
# [11] = tested on: PC-3; experiment: Cytotoxicity in human PC3 cells assessed as reduction in cell viability incubated for 96 hrs by SRB assay; assay type: functional, cell-based; settings: PC-3, 96 h
# [12] = tested on: MDA-MB-231; experiment: Cytotoxicity in human MDA-MB-231 cells assessed as reduction in cell viability incubated for 96 hrs by SRB assay; assay type: functional, cell-based; settings: MDA-MB-231, 96 h
# [13] = tested on: DU-145; experiment: Cytotoxicity in human DU145 cells assessed as reduction in cell viability incubated for 96 hrs by SRB assay; assay type: functional, cell-based; settings: DU-145, 96 h
# [14] = tested on: HCT-116; experiment: Cytotoxicity in human HCT116 cells assessed as reduction in cell viability incubated for 96 hrs by SRB assay; assay type: functional, cell-based; settings: HCT-116, 96 h
# [15] = tested on: HCT-8; experiment: Cytotoxicity in human HCT8 cells assessed as reduction in cell viability incubated for 96 hrs by SRB assay; assay type: functional, cell-based; settings: HCT-8, 96 h
# [16] = tested on: MDA-MB-231; experiment: Cytotoxicity in human MDA-MB-231 cells assessed as reduction in cell viability incubated for 48 hrs by SRB assay; assay type: functional; settings: MDA-MB-231, 48 h
# [17] = tested on: MCF7; experiment: Cytotoxicity in human MCF7 cells assessed as reduction in cell viability incubated for 48 hrs by SRB assay; assay type: functional, cell-based; settings: MCF7, 48 h
Compound,IC50 [8],IC50 [9],IC50 [10],IC50 [11],IC50 [12],IC50 [13],IC50 [14],IC50 [15],other results
CC(=O)O[C@H]1CC[C@]2(C)[C@H]3CC=C4[C@@H]5[C@@H](C)[C@H](C)CC[C@]5(C(=O)N5CCNCC5)CC[C@@]4(C)[C@]3(C)CC[C@H]2C1(C)C,,,,,,,,,IC50 [1]: 4.8 µM; IC50 [2]: 7 µM; IC50 [3]: 9.1 µM
Cc1nc(C)c(COC(=O)[C@]23CCC(C)(C)C[C@H]2C2=CC[C@@H]4[C@@]5(C)CC[C@H](O)C(C)(C)[C@@H]5CC[C@@]4(C)[C@]2(C)CC3)nc1C,,,,,,,,,IC50 [4]: 29.8 µM; IC50 [5]: 6.36 µM; IC50 [6]: > 30 µM; IC50 [7]: 28.7 µM
COC(=O)[C@@]1(C)CC[C@]2(C)CC[C@]3(C)C(=CC(=O)[C@@H]4[C@@]5(C)Cc6cn(C(=O)C7CCCNC7)nc6C(C)(C)[C@@H]5CC[C@]43C)[C@H]2C1 (stereo partly drawn),21.8 µM,23.7 µM,9.68 µM,23.1 µM,24 µM,21.9 µM,22 µM,23.8 µM,
COC(=O)[C@@]1(C)CC[C@]2(C)CC[C@]3(C)C(=CC(=O)[C@@H]4[C@@]5(C)Cc6cn(S(C)(=O)=O)nc6C(C)(C)[C@@H]5CC[C@]43C)[C@H]2C1,18.5 µM,15.2 µM,12.5 µM,18.9 µM,28.6 µM,> 50 µM,8.7 µM,24.5 µM,
COC(=O)[C@@]1(C)CC[C@]2(C)CC[C@]3(C)C(=CC(=O)[C@@H]4[C@@]5(C)Cc6cn(C(=O)CCCC7CCNCC7)nc6C(C)(C)[C@@H]5CC[C@]43C)[C@H]2C1,8.76 µM,8.08 µM,6.09 µM,5.19 µM,9.76 µM,7.54 µM,6.99 µM,11.7 µM,
COC(=O)[C@@]1(C)CC[C@]2(C)CC[C@]3(C)C(=CC(=O)[C@@H]4[C@@]5(C)Cc6c(n[nH]c6C(F)(F)F)C(C)(C)[C@@H]5CC[C@]43C)[C@H]2C1,27.6 µM,22 µM,15.7 µM,19.8 µM,27.4 µM,33.6 µM,11.9 µM,20 µM,
C[C@H]1[C@H](C)CC[C@]2(C(=O)N3CCNCC3)CC[C@]3(C)C(=CC[C@@H]4[C@@]5(C)CC[C@H](O)C(C)(C)[C@@H]5CC[C@]43C)[C@H]12,,,,,,,,,IC50 [1]: 5.1 µM; IC50 [2]: 14.4 µM; IC50 [3]: 12.6 µM
C[C@H]1[C@H](C)CC[C@]2(C(=O)OCCCn3cc(COC(=O)[C@]45CC[C@@H](C)[C@H](C)[C@@H]4C4=CC[C@@H]6[C@@]7(C)C[C@H](O)[C@H](O)[C@](C)(CO)[C@@H]7CC[C@]6(C)[C@]4(C)CC5)cn3)CC[C@]3(C)C(=CC[C@@H]4[C@@]5(C)CC[C@H](O)C(C)(C)[C@@H]5CC[C@]43C)[C@H]12,,,,,,,,,GI50 [16]: 7.4 µM; GI50 [17]: 12.8 µM
C[C@H]1[C@H](C)CC[C@]2(C(=O)NCCCCCCCCN)CC[C@]3(C)C(=CC[C@@H]4[C@@]5(C)CC[C@H](O)C(C)(C)[C@@H]5CC[C@]43C)[C@H]12,,,,,,,,,IC50 [1]: 26.7 µM; IC50 [2]: 16.9 µM; IC50 [3]: 39.4 µM
COC(=O)[C@@]1(C)CC[C@]2(C)CC[C@]3(C)C(=CC(=O)[C@@H]4[C@@]5(C)Cc6cn(OC(C)=O)nc6C(C)(C)[C@@H]5CC[C@]43C)[C@H]2C1,31 µM,33 µM,20.1 µM,25.4 µM,32.3 µM,36.7 µM,14.1 µM,29.2 µM,
COC(=O)[C@@]1(C)CC[C@]2(C)CC[C@]3(C)C(=CC(=O)[C@@H]4[C@@]5(C)Cc6cn(C(=O)CC7CCNCC7)nc6C(C)(C)[C@@H]5CC[C@]43C)[C@H]2C1,12.1 µM,9.87 µM,5.8 µM,11.7 µM,10.1 µM,13.3 µM,12.1 µM,8.98 µM,
C[C@H]1[C@H](C)CC[C@]2(C(=O)OCCCn3cc(COC(=O)[C@]45CC[C@@H](C)[C@H](C)[C@@H]4C4=CC[C@@H]6[C@@]7(C)CC[C@H](O)C(C)(C)[C@@H]7CC[C@]6(C)[C@]4(C)CC5)cn3)CC[C@]3(C)C(=CC[C@@H]4[C@@]5(C)CC[C@H](O)C(C)(C)[C@@H]5CC[C@]43C)[C@H]12,,,,,,,,,GI50 [16]: 3.8 µM; GI50 [17]: 12.7 µM
COC(=O)[C@@]1(C)CC[C@]2(C)CC[C@]3(C)C(=CC(=O)[C@@H]4[C@@]5(C)Cc6cn(C(=O)C7CCNCC7)nc6C(C)(C)[C@@H]5CC[C@]43C)[C@H]2C1,25.2 µM,21.4 µM,5.34 µM,22.4 µM,19.2 µM,20.8 µM,23.2 µM,22.3 µM,
CCOC(=O)c1[nH]nc2c1C[C@]1(C)[C@H]3C(=O)C=C4[C@H]5C[C@@](C)(C(=O)OCc6ccccc6)CC[C@]5(C)CC[C@@]4(C)[C@]3(C)CC[C@H]1C2(C)C,12.5 µM,17.7 µM,5.75 µM,19.6 µM,16.6 µM,23.8 µM,8.2 µM,9.96 µM,
COC(=O)[C@@]1(C)CC[C@]2(C)CC[C@]3(C)C(=CC(=O)[C@@H]4[C@@]5(C)Cc6c[nH]nc6C(C)(C)[C@@H]5CC[C@]43C)[C@H]2C1,32 µM,26.1 µM,14.7 µM,26.5 µM,33.2 µM,30.3 µM,13.2 µM,31.5 µM,
COC(=O)[C@@]1(C)CC[C@]2(C)CC[C@]3(C)C(=CC(=O)[C@@H]4[C@@]5(C)Cc6cn(C(=O)CCC7CCNCC7)nc6C(C)(C)[C@@H]5CC[C@]43C)[C@H]2C1,12.5 µM,13 µM,5.77 µM,12 µM,9.56 µM,13.9 µM,6.36 µM,13.6 µM,
C[C@H]1[C@H](C)CC[C@]2(C(=O)OCCCn3cc(COC(=O)[C@]45CC[C@@H](C)[C@H](C)[C@@H]4C4=CC[C@@H]6[C@@]7(C)C[C@H](O)[C@H](O)C(C)(C)[C@@H]7CC[C@]6(C)[C@]4(C)CC5)cn3)CC[C@]3(C)C(=CC[C@@H]4[C@@]5(C)CC[C@H](O)C(C)(C)[C@@H]5CC[C@]43C)[C@H]12,,,,,,,,,GI50 [16]: 4.7 µM; GI50 [17]: 12 µM
CC(=O)O[C@H]1CC[C@]2(C)[C@H]3CC=C4[C@@H]5[C@@H](C)[C@H](C)CC[C@]5(C(=O)N5CCNCC5C)CC[C@@]4(C)[C@]3(C)CC[C@H]2C1(C)C (stereo partly drawn),,,,,,,,,IC50 [1]: 5.2 µM; IC50 [2]: 6.3 µM; IC50 [3]: 14.8 µM
CC(=O)O[C@H]1CC[C@]2(C)[C@H]3CC=C4[C@@H]5[C@@H](C)[C@H](C)CC[C@]5(C(=O)NCCCCCCCCN)CC[C@@]4(C)[C@]3(C)CC[C@H]2C1(C)C,,,,,,,,,IC50 [1]: 17.3 µM; IC50 [2]: 8.6 µM; IC50 [3]: 36.1 µM
CC1(C)c2n[nH]cc2C[C@]2(C)[C@H]3C(=O)C=C4[C@H]5C[C@@](C)(C(=O)OCc6ccccc6)CC[C@]5(C)CC[C@@]4(C)[C@]3(C)CC[C@@H]12,15.2 µM,19.8 µM,6.32 µM,12.3 µM,18.1 µM,19 µM,7.49 µM,13.3 µM,
